Experiments:
[1] = target: T1, Human KIF18A (amino acid sequence 1-417) (Homo sapiens, UniProt Q8NI77); assay: Enzymatic activity test (ADP-Glo, microtubule-stimulated KIF18A ATPase); type: biochemical; conditions: 60 μg/mL microtubules, 25 μM ATP, 2.5 nM KIF18A protein, 120 min at ambient temperature, read-out: KIF18A_nM
T1 construct: purchased Viva Biotech (Shanghai) Ltd
T1 sequence (Q8NI77 1-417): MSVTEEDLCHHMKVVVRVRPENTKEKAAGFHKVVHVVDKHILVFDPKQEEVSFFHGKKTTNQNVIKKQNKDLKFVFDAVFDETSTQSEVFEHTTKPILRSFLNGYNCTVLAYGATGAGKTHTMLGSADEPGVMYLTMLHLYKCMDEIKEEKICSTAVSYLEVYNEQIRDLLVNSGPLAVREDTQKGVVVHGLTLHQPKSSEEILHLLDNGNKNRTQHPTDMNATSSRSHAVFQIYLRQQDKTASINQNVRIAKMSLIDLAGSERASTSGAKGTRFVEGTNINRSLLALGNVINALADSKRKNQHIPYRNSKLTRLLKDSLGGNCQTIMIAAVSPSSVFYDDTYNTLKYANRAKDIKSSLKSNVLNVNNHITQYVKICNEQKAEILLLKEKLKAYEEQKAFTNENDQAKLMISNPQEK
Experimental: Human KIF18A (amino acid sequence 1-417) was purchased from Viva Biotech (Shanghai) Ltd.; the ADP-Glo™ protein kinase kit was acquired from Promega, USA; tubulin was sourced from Cytoskeleton, USA; and the 384-well assay plate and Envision multifunctional microplate reader were obtained from PerkinElmer, USA.
Dissolve the compound powder in DMSO to prepare a stock solution of 10 mM. Then perform gradient dilution for the compounds in the microplate to achieve a final concentration of 0-10 μM. Then, add 2.5 μL each of tubulin, compound, ATP, and KIF18A protein to the microplate in sequence for reaction at ambient temperature for 120 min. The final concentrations in the enzyme reaction are 60 μg/mL for microtubules, 25 μM for ATP, and 2.5 nM for KIF18A protein. After the enzyme reaction, add 10 μL of ADP-GLO reaction reagent to each well and incubate at ambient temperature for 30 min. After that, add 20 μL of detection reagent to each well and incubate at ambient temperature for 30 min in the dark. Finally, perform chemiluminescence detection using the PerkinElmer Envision.

[2] = system: OVCAR3 cells; assay: Cell proliferation activity test in OVCAR3 cells (CyQUANT Direct); type: cell-based; conditions: Homo sapiens, OVCAR-3, 72 h, 3 days incubation, CyQUANT fluorescence detection, read-out: OVCAR-3_IC50_nM
Experimental: OVCAR3 cells were purchased from Nanjing Cobioer Biosciences Co., Ltd. RPMI-1640 medium, fetal bovine serum, and the CyQUANT Direct Cell Proliferation Assay kit were purchased from Thermo Fisher Scientific, USA; 96-well cell culture plates were sourced from Corning, USA.
Culture OVCAR3 cells with RPMI-1640 medium containing 10% fetal bovine serum and incubate them in a 5% CO2 incubator at 37° C. Only cells in the logarithmic growth phase can be used for the test.
Inoculate OVCAR3 cells into a 96-well cell culture plate at 90 μL per well and incubate overnight in a 5% CO2 incubator at 37° C. Dissolve the compound powder in DMSO to prepare a stock solution of 10 mM. Then perform gradient dilution for the compounds in the microplate to achieve a final concentration of 0-10 μM. Add 10 μL of cell culture medium containing compounds to each well to make the final DMSO content 0.2%. Incubate the cell plates in a 5% CO2 incubator at 37° C. for 3 days. Add 100 μL of CyQUANT detection reagent to each well, react at 37° C. for 60 min, and perform fluorescence detection using the PerkinElmer Envision.

[3] = system: HT29 cells; assay: CyQuant cell proliferation activity test in HT29 cells; type: cell-based; conditions: Homo sapiens, HT-29, 72 h, 2000 cells per well, 3 days incubation, IC50 by XLFIT, read-out: HT29_IC50_nM
Experimental: HT29 cells were purchased from Nanjing Cobioer Biosciences Co., Ltd.; RPMI-1640 medium, fetal bovine serum, Trypsin-EDTA (0.25%), 96-well plates, and CyQuant reagents were purchased from ThermoFisher (USA); DMSO was purchased from SIGMA (USA).
Culture HT29 cells with RPMI-1640 containing 10% fetal bovine serum under the condition of 37° C. and 5% CO2. Only cells in the logarithmic growth phase can be used for the test.
Use the CyQuant reagent to detect the proliferation inhibitory activity of compounds on HT29 cells. Adjust the cell density and inoculate 100 μL per well into the 96-well plate (HT29 at 2000 cells per well), then incubate overnight under the condition of 37° C. and 5% CO2. Add compounds of various target concentrations (initial concentration of 3000 nM, 3-fold dilution, 9 concentration gradients), and make the DMSO content 0.2%. Incubate the cell plates at 37° C. and 5% CO2 for 3 days. Incubate with CyQuant reagent for 1 h, read the plate by Envision, and calculate IC50 using XLFIT.

| IC50 [1] [nM] | IC50 [2] [nM] | IC50 [3] [nM] | SMILES |
| --- | --- | --- | --- |
| 250 | 112 | 89 | O=C(Nc1cc2ccccc2c(N2CCC(F)(F)CC2)n1)c1ccc(NS(=O)(=O)CCO)cc1N1CCC2(CC1)CC2 [Example 55] |
| 38 | 14 | 22 | O=C(Nc1cc2nccnc2c(N2CCC(F)(F)CC2)n1)c1ccc(NS(=O)(=O)CCO)cc1N1CCC2(CC1)CC2 [Example 59] |
| > 3000 | > 3000 | > 3000 | O=C(Nc1cc2cccnc2c(N2CCC(F)(F)CC2)c1C(F)(F)F)c1ccc(NS(=O)(=O)CCO)cc1N1CCC2(CC1)CC2 [Example 72, N-(8-(4,4-difluoropiperidin-1-yl)-7-(trifluoromethyl)quinolin-6-yl)-4-((2-hydroxyethyl)sulfonamido)-2-(6-azaspiro[2.5]octan-6-yl)] |
| 149 | 83 | 92 | COc1ccc2cc(NC(=O)c3ccc(NS(=O)(=O)CCO)cc3N3CCC4(CC3)CC4)nc(N3CCC(F)(F)CC3)c2n1 [Example 52, N-(8-(4,4-difluoropiperidin-1-yl)-2-methoxy-1,7-naphthyridin-6-yl)-4-(2-hydroxyethylsulfonamido)-2-(6-azaspiro[2.5]octan-6-yl)benzamide] |
| 94 | 4 | 6 | Nc1ccc2cc(NC(=O)c3ccc(NS(=O)(=O)CCO)cc3N3CCC4(CC3)CC4)nc(N3CCC(F)(F)CC3)c2n1 [Example 53, N-(2-amino-8-(4,4-difluoropiperidin-1-yl)-1,7-naphthyridin-6-yl)-4-(2-hydroxyethylsulfonamido)-2-(6-azaspiro[2.5]octan-6-yl)benzamide] |
| 15 | 74 | 111 | O=C(Nc1cc2cc(O)nnc2c(N2CCC(F)(F)CC2)n1)c1ccc(NS(=O)(=O)CCO)cc1N1CCC2(CC1)CC2 [Example 61, 2-{6-Azaspiro[2.5]octan-6-yl}-N-[8-(4,4-difluoropiperidin-1-yl)-3-hydroxypyrido[3,4-c]pyridazin-6-yl]-4-(2-hydroxyethanesulfonamido)benzamide] |
| 28 | 18 | 31 | O=C(Nc1cc2cccnc2c(N2CCC(F)(F)CC2)n1)c1cc(F)c(NS(=O)(=O)CCO)cc1N1CCC2(CC1)CC2 [Example 45, N-(8-(4,4-difluoropiperidin-1-yl)-1,7-naphthyridin-6-yl)-5-fluoro-4-((2-hydroxyethyl)sulfonamide)-2-(6-azaspiro[2.5]octan-6-yl)benzamide] |
| 35 | 18 | 8 | O=C(Nc1cc(N2CCC(F)(F)CC2)c2cnccc2c1)c1ccc(NS(=O)(=O)CCO)cc1N1CCC2(CC1)CC2 [Example 81, N-(8-(4,4-difluoropiperidin-1-yl)isoquinolin-6-yl)-4-(2-hydroxyethylsulfonamido)-2-(6-azaspiro[2.5]octan-6-yl)benzamide] |
| 28 | 13 | 11 | O=C(Nc1cc2ccoc2c(N2CCC(F)(F)CC2)n1)c1ccc(NS(=O)(=O)CCO)cc1N1CCC2(CC1)CC2 [Example 29, N-(7-(4,4-difluoropiperidin-1-yl)furo[2,3-c]pyridin-5-yl)-4-(2-hydroxyethylsulfonamido)-2-(6-azaspiro[2.5]octan-6-yl)benzamide] |
| 39 | 48 | 40 | C[C@@H]1CN(c2nc(NC(=O)c3ccc(NS(=O)(=O)CCO)cc3N3CCC4(CC3)CC4)cc3cccnc23)CCO1 [Example 47] |
| – | 18 | 23 | O=C(Nc1cc2cccn2c(N2CCC(F)(F)CC2)n1)c1ccc(NS(=O)(=O)CCO)cc1N1CCC2(CC1)CC2 [Example 20, N-(1-(4,4-difluoropiperidin-1-yl)pyrrolo[1,2-c]pyrimidin-3-yl)-4-(2-hydroxyethylsulfonamido)-2-(6-azaspiro[2.5]octan-6-yl)benzamide] |

Reference: patent US20260159500A1, “KINESIN KIF18A INHIBITOR AND USE THEREOF” (SHANGHAI APEIRON THERAPEUTICS COMPANY LIMITED, priority 2022, published 2026)
